Measured values taken from article PMC7076710, “Synthesis, Identification, and Structure–Activity Relationship Analysis of GATA4 and NKX2-5 Protein–Protein Interaction Modulators” (Journal of Medicinal Chemistry, 2019).
One block for each compound: values may come before it.

Key:
Format in all cases: cell-based
[1] = biological target: T1, GATA4–NKX2-5 transcriptional synergy (Mus musculus, UniProt P42582+Q08369); assay: GATA4–NKX2-5 transcriptional synergy luciferase reporter assay (3xNKE reporter, COS-1 cells)
T1 construct: expressed in transfected cells; host or cells: COS-1
T1 sequence (Q08369 whole entry): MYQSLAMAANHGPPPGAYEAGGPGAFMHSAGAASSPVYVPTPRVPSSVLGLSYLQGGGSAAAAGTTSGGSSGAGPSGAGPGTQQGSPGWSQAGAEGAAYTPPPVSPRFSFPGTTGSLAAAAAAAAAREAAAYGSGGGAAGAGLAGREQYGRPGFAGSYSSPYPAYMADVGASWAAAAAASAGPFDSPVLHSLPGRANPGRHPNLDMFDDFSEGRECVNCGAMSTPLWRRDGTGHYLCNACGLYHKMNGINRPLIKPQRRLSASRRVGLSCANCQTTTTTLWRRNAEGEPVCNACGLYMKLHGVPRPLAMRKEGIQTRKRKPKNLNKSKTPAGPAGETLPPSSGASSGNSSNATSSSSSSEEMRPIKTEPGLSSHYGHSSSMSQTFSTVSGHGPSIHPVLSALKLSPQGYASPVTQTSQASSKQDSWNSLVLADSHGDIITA
T1 sequence (P42582 whole entry): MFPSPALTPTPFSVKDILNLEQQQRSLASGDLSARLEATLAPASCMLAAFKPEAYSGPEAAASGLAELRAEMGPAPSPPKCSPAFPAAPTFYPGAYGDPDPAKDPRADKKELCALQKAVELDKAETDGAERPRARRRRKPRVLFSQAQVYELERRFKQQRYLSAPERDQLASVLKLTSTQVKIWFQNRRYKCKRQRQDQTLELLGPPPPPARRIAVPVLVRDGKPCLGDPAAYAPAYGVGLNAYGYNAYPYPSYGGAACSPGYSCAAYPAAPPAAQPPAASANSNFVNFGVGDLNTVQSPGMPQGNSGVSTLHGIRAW

[2] = tested on: COS-1 cells; assay: LDH assay (necrosis)
Text: (§1) To investigate the toxicity as a potential cause of decreased or increased activity in luciferase reporter gene assays, we tested a set of 40 active compounds in the COS-1 cell line used for the luciferase assays. Concentration-dependent toxic effects were investigated using the lactate dehydrogenase (LDH) assay to detect necrosis and the 3-(4,5-dimethylthiazol-2-yl)-2,5-diphenyltetrazolium bromide (MTT) assay as a measure of cell viability. […] For the data analysis, compounds were classified as toxic (Figures 5 and 7) if they induced a >10% decrease in cell viability in the MTT assay at the concentration of 10 μM. The most toxic compounds (35a, 35d, 54, 58, and 63–65) in the MTT assay all contained a phenyl substituent in the southern part ring, while the ortho-nitrophenyl-derivative 39g and the phenyl-substituted thiophene 47t were nontoxic. Higher flexibility in the central parts of the ethers (35a, 35d) and N-acylated amines (58, 64) might contribute to their toxicity, because less rigid compounds are more likely to have affinity to various biological targets. Such interactions can cause toxicity. To confirm and validate the results from MTT assays, we tested three nontoxic (2, 47s, and 72) and three toxic (1, 35a, and 58) compounds in a cell viability assay measuring intracellular ATP content.
(§2) Figure 5 Effects of selected compounds on COS-1 cell viability. (A) Compound-induced necrosis was quantified with the LDH assay after a 24-h compound exposure. The data are presented as cytotoxicity percentage (% of maximal LDH release). (B) Cell viability was analyzed with the MTT assay after a 24-h compound exposure. (A,B) The data are means from 2–3 independent experiments with 3 replicate wells in each and are presented as % of control (vehicle-treated cells). The compounds have been grouped on the basis of the structure of the central part: a, amide; b, ether; c, N-acylated amine; d, amine; and e, imine. (C) The effects of selected compounds on cell viability as determined by ATP content after a 24-h compound exposure. The data are mean + SEM from three independent experiments and are presented as % of vehicle-treated cells.
(§3) For toxicity screening, COS-1 cells were cultured in DMEM (Sigma-Aldrich, Steinheim, Germany) supplemented with 10% fetal bovine serum, 100 U/mL penicillin, and 100 μg/mL streptomycin (all from Gibco, Thermo Scientific) at 37 °C with 5% CO2. The cells were plated on 96-well plates at 10 000 cells/well and exposed to test compounds at a concentration range of 1–30 μM on the following day. After a 24-h compound treatment, lactate dehydrogenase (LDH) and 3-(4,5-dimethylthiazol-2-yl)-2,5-diphenyltetrazolium bromide (MTT) assays were carried out as described previously.[48] Briefly, LDH activity was determined from 50 μL samples of cell culture medium, to which 50 μL of substrate solution [1.3 mM β-nicotinamide-adenine dinucleotide, 660 μM iodonitrotetrazolium, 54 mM L(+)-lactic acid, and 280 μM phenazine methosulfate in 0.2 M Tris-HCl, pH 8.2, all from Sigma-Aldrich] was added, and the plate was incubated for 30 min at room temperature. The reaction was stopped with acetic acid (final concentration 333 mM), and absorbance was measured at 490 nm. The absorbance values of the samples were normalized to maximal LDH release and spontaneous LDH release determined on the same plate. Mitochondrial metabolic activity was quantified by incubating the cells with 0.5 mg/mL MTT (from Sigma-Aldrich) for 2 h at 37 °C with 5% CO2, whereafter culture medium was removed and formazan crystals were dissolved in DMSO. The absorbance was measured at 550 nm, and absorbance at 650 nm was subtracted as background.

[3] = tested on: COS-1 cells; assay: MTT assay (cell viability)
Text: as §1, §2, §3

[4] = COS-1, compound at 3 µM, luciferase reporter activity, % of control
[5] = COS-1, compound at 10 µM, luciferase reporter activity, % of control
[6] = COS-1, compound 3 µM, luciferase reporter activity relative to control
[7] = COS-1, compound 10 µM, luciferase reporter activity relative to control
[8] = 3 µM compound, GATA4–NKX2-5 transcriptional synergy reporter, COS-1 cells
[9] = 10 µM compound, GATA4–NKX2-5 transcriptional synergy reporter, COS-1 cells
[10] = COS-1, compound 3 µM, luciferase reporter activity, spread in separate STDEV column
[11] = COS-1, compound 10 µM, luciferase reporter activity, spread in separate STDEV column
[12] = COS-1, GATA4-NKX2-5 transcriptional synergy luciferase reporter assay, compound at 3 µM
[13] = COS-1, GATA4-NKX2-5 transcriptional synergy luciferase reporter assay, compound at 10 µM

Structure (SMILES): O=C(Nc1ccc2oc(-c3ccccc3)cc(=O)c2c1)c1cnsc1 [SI100]
activity at 3 µM [1, 6]: 112%
activity at 10 µM [1, 7]: 117%

Structure (SMILES): Cc1cc(C(=O)Nc2ccc3oc(-c4ccccc4)cc(=O)c3c2)c(-c2ccccc2)o1 [SI101]
activity at 3 µM [1, 8]: 90.8%
activity at 10 µM [1, 9]: 78%

Structure (SMILES): O=C(Nc1ccc2oc(-c3ccccc3)cc(=O)c2c1)c1ncoc1-c1ccccc1 [SI102]
activity at 3 µM [1, 8]: 103%
activity at 10 µM [1, 9]: 91.3%

Structure (SMILES): CSc1nsc(SC)c1C(=O)Nc1ccc2oc(-c3ccccc3)cc(=O)c2c1 [SI103]
activity at 3 µM [1, 8]: 96.2%
activity at 10 µM [1, 9]: 110%

Structure (SMILES): O=C(Nc1ccc2oc(-c3ccccc3)cc(=O)c2c1)c1snnc1-c1ccccc1 [SI104]
activity at 3 µM [1, 8]: 103%
activity at 10 µM [1, 9]: 94.9%

Structure (SMILES): Cc1noc(-c2ccccc2)c1C(=O)Nc1ccc2oc(-c3ccccc3)cc(=O)c2c1 [SI105]
activity at 3 µM [1, 6]: 70.3%
activity at 10 µM [1, 7]: 44.1%

Structure (SMILES): CCN(CC)c1ccc(C(=O)Nc2c(C(N)=O)oc3ccccc23)cc1 [SI106]
activity at 3 µM [1, 4]: 94.1%
activity at 10 µM [1, 5]: 95.8%

Structure (SMILES): Cc1onc(-c2ccccc2)c1NCc1ccc(N(C)C)cc1 [SI109]
activity at 3 µM [1, 4]: 87.1%
activity at 10 µM [1, 5]: 89.9%

Structure (SMILES): COC(=O)c1c(-c2ccccc2)nnn1CCc1ccccc1 [SI111]
activity at 3 µM [1, 6]: 103%
activity at 10 µM [1, 7]: 106%

Structure (SMILES): CCN(CC)C(=O)c1cc(-c2cccs2)on1 [SI114]
activity at 3 µM [1, 10]: 124%
activity at 10 µM [1, 11]: 115%

Structure (SMILES): Cc1onc(-c2ccc(Br)s2)c1C(=O)NC1CC1 [SI117]
activity at 3 µM [1, 10]: 90%
activity at 10 µM [1, 11]: 105%

Structure (SMILES): O=C1COc2ccc(NC(=O)c3cc(-c4ccccc4)[nH]n3)cc2N1 [SI121]
activity at 3 µM [1, 12]: 101%
activity at 10 µM [1, 13]: 90.6%

Structure (SMILES): O=C(Nc1ccc2c(c1)OC(F)(F)O2)c1cc(-c2ccco2)on1 [SI122]
activity at 3 µM [1, 12]: 91.8%
activity at 10 µM [1, 13]: 102%

Structure (SMILES): O=C(Nc1ccc(F)c(Cl)c1)c1cnoc1-c1ccco1 [SI124]
activity at 3 µM [1, 12]: 108%
activity at 10 µM [1, 13]: 102%

Structure (SMILES): CCC1(C)Oc2ccc(NC(=O)c3cnoc3-c3ccc(C)o3)cc2O1 (stereo not shown) [SI125]
activity at 3 µM [1, 12]: 106%
activity at 10 µM [1, 13]: 91.7%

Structure (SMILES): CCOC(=O)c1cc(NC(=O)c2cc(-c3ccccc3)no2)c[nH]1 [SI126]
activity at 3 µM [1, 12]: 100%
activity at 10 µM [1, 13]: 101%

Structure (SMILES): O=C(Nc1ccc(N2CCCS2(=O)=O)cc1)c1c[nH]cc1-c1ccc(Cl)s1 [SI127]
activity at 3 µM [1, 12]: 96.7%
activity at 10 µM [1, 13]: 82.9%

Structure (SMILES): O=C(Nc1cc(-c2cccs2)n[nH]1)c1ccccc1 [SI128]
activity at 3 µM [1, 12]: 110%
activity at 10 µM [1, 13]: 69.3%

Structure (SMILES): CN(C)c1c(F)cc(NC(=O)c2cc(-c3ccco3)on2)cc1F [SI129]
activity at 3 µM [1, 12]: 94.3%
activity at 10 µM [1, 13]: 115%

Structure (SMILES): O=C(Nc1cccc(N2CCCC2=O)c1)c1cc(-c2ccccc2)[nH]n1 [SI130]
activity at 3 µM [1, 12]: 102%
activity at 10 µM [1, 13]: 106%

Structure (SMILES): CCN(CC)c1ccc(NC(=O)c2c(-c3cccc(Br)c3)noc2C)c(C)c1 [SI131]
activity at 3 µM [1, 12]: 85.4%
activity at 10 µM [1, 13]: 88.3%

Structure (SMILES): CCN(CC)c1ccc(NC(=O)c2c(-c3ccccc3)noc2C)c(C)c1 [SI132]
activity at 3 µM [1, 12]: 85.4%
activity at 10 µM [1, 13]: 61.6%

Structure (SMILES): Cc1cc(-c2noc(C)c2C(=O)Nc2cccc(Cl)c2)no1 [SI136]
activity at 3 µM [1, 12]: 83%
activity at 10 µM [1, 13]: 82.5%

Further lines, with some results ahead:

activity at 3 µM ([1]; COS-1, 3 µM, luciferase reporter activity relative to control): 93.4%
Structure (SMILES): CCN(CC)c1ccc(NC(=O)c2c(-c3cccc([N+](=O)[O-])c3)noc2C)cc1 [Compound 39g]
LDH.1µM ([2]; 1 µM): 1.8
LDH.3µM ([2]; 3 µM): 1.19
LDH.10µM ([2]; 10 µM): -0.41
LDH.30µM ([2]; 30 µM): -0.68
MTT.1µM ([3]; 1 µM, cell viability): 105.86
MTT.3µM ([3]; 3 µM, cell viability): 108.44
MTT.10µM ([3]; 10 µM, cell viability): 106.4
MTT.30µM ([3]; 30 µM, cell viability): 104.14
toxicity class in the MTT assay ([3]; 24-h exposure, classified at 10 μM): nontoxic (nontoxic compounds (cell viability >90%))

activity at 3 µM [1, 4]: 79.8%
activity at 10 µM [1, 5]: 108%
Structure (SMILES): COc1ccc(NC(=O)n2nc(N)cc2-c2ccc(OC)cc2)cc1 [SI99]

activity at 3 µM [1, 6]: 113%
activity at 10 µM [1, 7]: 104%
Structure (SMILES): CC(=O)c1ccc(OCc2cc(-c3ccc(CC(C)C)cc3)on2)cc1 [SI107]

activity at 3 µM [1, 8]: 100%
activity at 10 µM [1, 9]: 117%
Structure (SMILES): COC(=O)c1ccc(N(C)C(=O)c2c(-c3ccccc3)noc2C)cc1 [SI110]

activity at 3 µM [1, 4]: 104%
activity at 10 µM [1, 5]: 71.9%
Structure (SMILES): COc1ccc(-c2cc(N)nn2C(=O)c2ccc(C(C)(C)C)cc2)cc1 [SI112]

activity at 3 µM [1, 10]: 101%
activity at 10 µM [1, 11]: 99.2%
Structure (SMILES): N#Cc1ccc(NC(=O)c2cc(-c3ccco3)on2)cc1 [SI113]

activity at 3 µM [1, 10]: 92%
activity at 10 µM [1, 11]: 91.9%
Structure (SMILES): COc1ccc(NC(=O)c2c(-c3ccc(Br)s3)noc2C)cc1Cl [SI115]

activity at 3 µM [1, 10]: 99.4%
activity at 10 µM [1, 11]: 97.2%
Structure (SMILES): Cc1onc(-c2ccc(Br)s2)c1C(=O)Nc1ccc(C(C)C)cc1 [SI116]

activity at 3 µM [1, 10]: 96.6%
activity at 10 µM [1, 11]: 102%
Structure (SMILES): N#Cc1ccc(NC(=O)c2cc(-c3ccncc3)[nH]n2)cc1 [SI118]

activity at 3 µM [1, 12]: 91.2%
activity at 10 µM [1, 13]: 103%
Structure (SMILES): CC(C)c1ccc(NC(=O)c2n[nH]c3c2COc2ccccc2-3)cc1 [SI119]

activity at 3 µM [1, 12]: 91.7%
activity at 10 µM [1, 13]: 90.7%
Structure (SMILES): CCN(CC)c1ccc(NC(=O)c2cc(-c3ccco3)[nH]n2)cc1 [SI120]

activity at 3 µM [1, 12]: 88.6%
activity at 10 µM [1, 13]: 86.3%
Structure (SMILES): Cc1ccc(NC(=O)c2c(-c3cc(C)on3)noc2C)cc1 [SI133]

activity at 3 µM [1, 12]: 82.9%
activity at 10 µM [1, 13]: 87.7%
Structure (SMILES): Cc1cc(-c2noc(C)c2C(=O)Nc2ccc(Cl)cc2)no1 [SI134]

activity at 3 µM [1, 12]: 98.8%
activity at 10 µM [1, 13]: 101%
Structure (SMILES): Cc1cc(-c2noc(C)c2C(=O)Nc2ccc(C(F)(F)F)cc2)no1 [SI135]
